Data as given in the supplement of paper PMC10307832.

Tests used:
Test in all cases: relative viability (nuclei count vs DMSO), 5 days (fraction); higher = more cells survive
[1] = compound: C1CNCCC1C2=CC(=NN2)C3=CC=NC=C3 + N=C(N)NC(=N)NCCc1ccccc1 [Phenformin] (partner 250 µM)
Summary of the method: (§1)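 For relative viability, nuclei counts in treated wells were divided by those in vehicle wells. Lung cancer cell lines had been pin-tool dosed in 1536-well plates the day after seeding and cultured for 5 days, then fixed and stained in one step (final 0.05% Triton X-100, 1% formaldehyde, 1 ug/ml Hoechst) and imaged at 4×. Doses were one drug alone or a fixed anchor-drug dose plus five library-drug doses (not always all listed) in √10 steps, and values are duplicate-plate medians.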

[2] = compound: C[C@@H](N)c1ccc(C(=O)Nc2ccnc3[nH]ccc23)cc1 + CC(=O)Nc1cccc(-n2c(=O)n(C3CC3)c(=O)c3c(Nc4ccc(I)cc4F)n(C)c(=O)c(C)c32)c1 [Trametinib] (partner 0.02 µM)
Summary of the method: as §1

[3] = compound: C[C@@H](N)c1ccc(C(=O)Nc2ccnc3[nH]ccc23)cc1 + CCNC(=O)c1noc(-c2cc(C(C)C)c(O)cc2O)c1-c1ccc(CN2CCOCC2)cc1 [Luminespib] (partner 0.01 µM)
Summary of the method: as §1

[4] = compound: C1CNCCC1C2=CC(=NN2)C3=CC=NC=C3 + CC1(C)CCC(c2ccc(Cl)cc2)=C(CN2CCN(c3ccc(C(=O)NS(=O)(=O)c4ccc(N[C@H](CCN5CCOCC5)CSc5ccccc5)c(S(=O)(=O)C(F)(F)F)c4)cc3)CC2)C1 [Navitoclax] (partner 0.5 µM)
Summary of the method: as §1

HOP-62
relative viability ([1]; first compound 0.08 µM): 0.602 | relative viability ([1]; first compound 0.8 µM): 0.844 | relative viability ([1]; first compound 2.53 µM): 0.756 | relative viability ([1]; first compound 8 µM): 0.621 | relative viability ([2]; first compound 0.04 µM): 0.425 | relative viability ([2]; first compound 0.1265 µM): 0.356 | relative viability ([2]; first compound 0.4 µM): 0.35 | relative viability ([2]; first compound 1.265 µM): 0.377 | relative viability ([2]; first compound 4 µM): 0.365 | relative viability ([3]; first compound 0.04 µM): 0.732 | relative viability ([3]; first compound 0.1265 µM): 0.812 | relative viability ([3]; first compound 0.4 µM): 0.94 | relative viability ([3]; first compound 1.265 µM): 0.893 | relative viability ([3]; first compound 4 µM): 0.817 | relative viability ([4]; first compound 0.08 µM): 1.06 | relative viability ([4]; first compound 0.8 µM): 1.21 | relative viability ([4]; first compound 2.53 µM): 1.13 | relative viability ([4]; first compound 8 µM): 1.03

NCI-H3122
relative viability ([1]; first compound 0.08 µM): 0.329 | relative viability ([1]; first compound 0.8 µM): 0.414 | relative viability ([1]; first compound 2.53 µM): 0.402 | relative viability ([1]; first compound 8 µM): 0.364 | relative viability ([2]; first compound 0.04 µM): 0.231 | relative viability ([2]; first compound 0.1265 µM): 0.229 | relative viability ([2]; first compound 0.4 µM): 0.223 | relative viability ([2]; first compound 1.265 µM): 0.26 | relative viability ([2]; first compound 4 µM): 0.234 | relative viability ([3]; first compound 0.04 µM): 0.0997 | relative viability ([3]; first compound 0.1265 µM): 0.0955 | relative viability ([3]; first compound 0.4 µM): 0.113 | relative viability ([3]; first compound 1.265 µM): 0.162 | relative viability ([3]; first compound 4 µM): 0.124 | relative viability ([4]; first compound 0.08 µM): 0.98 | relative viability ([4]; first compound 0.8 µM): 1.05 | relative viability ([4]; first compound 2.53 µM): 0.979 | relative viability ([4]; first compound 8 µM): 1.03

NCI-H1395
relative viability ([1]; first compound 0.08 µM): 0.419 | relative viability ([1]; first compound 0.8 µM): 0.342 | relative viability ([1]; first compound 2.53 µM): 0.419 | relative viability ([1]; first compound 8 µM): 0.497 | relative viability ([2]; first compound 0.04 µM): 1.04 | relative viability ([2]; first compound 0.1265 µM): 0.996 | relative viability ([2]; first compound 0.4 µM): 1.03 | relative viability ([2]; first compound 4 µM): 0.912 | relative viability ([3]; first compound 0.04 µM): 0.662 | relative viability ([3]; first compound 0.1265 µM): 0.716 | relative viability ([3]; first compound 0.4 µM): 0.64 | relative viability ([3]; first compound 1.265 µM): 0.669 | relative viability ([3]; first compound 4 µM): 0.685 | relative viability ([4]; first compound 0.08 µM): 1.15 | relative viability ([4]; first compound 0.8 µM): 0.976 | relative viability ([4]; first compound 2.53 µM): 1.23 | relative viability ([4]; first compound 8 µM): 1.13

NCI-H647
relative viability ([1]; first compound 0.08 µM): 0.44 | relative viability ([1]; first compound 0.8 µM): 0.487 | relative viability ([1]; first compound 2.53 µM): 0.52 | relative viability ([1]; first compound 8 µM): 0.533 | relative viability ([2]; first compound 0.04 µM): 0.387 | relative viability ([2]; first compound 0.1265 µM): 0.47 | relative viability ([2]; first compound 0.4 µM): 0.46 | relative viability ([2]; first compound 1.265 µM): 0.424 | relative viability ([2]; first compound 4 µM): 0.385 | relative viability ([3]; first compound 0.04 µM): 0.133 | relative viability ([3]; first compound 0.1265 µM): 0.228 | relative viability ([3]; first compound 0.4 µM): 0.139 | relative viability ([3]; first compound 1.265 µM): 0.14 | relative viability ([3]; first compound 4 µM): 0.0908 | relative viability ([4]; first compound 0.08 µM): 1.18 | relative viability ([4]; first compound 0.8 µM): 1.33 | relative viability ([4]; first compound 2.53 µM): 1.37 | relative viability ([4]; first compound 8 µM): 1.12

EKVX
relative viability ([1]; first compound 0.08 µM): 0.269 | relative viability ([1]; first compound 0.8 µM): 0.209 | relative viability ([1]; first compound 2.53 µM): 0.255 | relative viability ([1]; first compound 8 µM): 0.209 | relative viability ([2]; first compound 0.04 µM): 0.482 | relative viability ([2]; first compound 0.1265 µM): 0.446 | relative viability ([2]; first compound 0.4 µM): 0.396 | relative viability ([2]; first compound 1.265 µM): 0.556 | relative viability ([2]; first compound 4 µM): 0.22 | relative viability ([3]; first compound 0.04 µM): 0.943 | relative viability ([3]; first compound 0.1265 µM): 0.987 | relative viability ([3]; first compound 0.4 µM): 1.08 | relative viability ([3]; first compound 1.265 µM): 0.879 | relative viability ([3]; first compound 4 µM): 0.942 | relative viability ([4]; first compound 0.08 µM): 1.03 | relative viability ([4]; first compound 0.8 µM): 0.713 | relative viability ([4]; first compound 2.53 µM): 1.07 | relative viability ([4]; first compound 8 µM): 0.96

NCI-H460
relative viability ([1]; first compound 0.08 µM): 0.335 | relative viability ([1]; first compound 0.8 µM): 0.72 | relative viability ([1]; first compound 2.53 µM): 0.564 | relative viability ([1]; first compound 8 µM): 0.51 | relative viability ([2]; first compound 0.04 µM): 0.217 | relative viability ([2]; first compound 0.1265 µM): 0.165 | relative viability ([2]; first compound 0.4 µM): 0.243 | relative viability ([2]; first compound 1.265 µM): 0.0564 | relative viability ([2]; first compound 4 µM): 0.178 | relative viability ([3]; first compound 0.04 µM): 0.04 | relative viability ([3]; first compound 0.1265 µM): 0.0445 | relative viability ([3]; first compound 0.4 µM): 0.0267 | relative viability ([3]; first compound 1.265 µM): 0.0276 | relative viability ([3]; first compound 4 µM): 0.0227 | relative viability ([4]; first compound 0.08 µM): 0.888 | relative viability ([4]; first compound 0.8 µM): 1.38 | relative viability ([4]; first compound 2.53 µM): 1.17 | relative viability ([4]; first compound 8 µM): 1.29

LCLC-97TM1
relative viability ([1]; first compound 0.08 µM): 0.328 | relative viability ([1]; first compound 0.8 µM): 0.511 | relative viability ([1]; first compound 2.53 µM): 0.437 | relative viability ([1]; first compound 8 µM): 0.396 | relative viability ([2]; first compound 0.04 µM): 0.211 | relative viability ([2]; first compound 0.1265 µM): 0.193 | relative viability ([2]; first compound 0.4 µM): 0.227 | relative viability ([2]; first compound 1.265 µM): 0.259 | relative viability ([2]; first compound 4 µM): 0.18 | relative viability ([3]; first compound 0.04 µM): 0.828 | relative viability ([3]; first compound 0.1265 µM): 0.826 | relative viability ([3]; first compound 0.4 µM): 1.06 | relative viability ([3]; first compound 1.265 µM): 0.908 | relative viability ([3]; first compound 4 µM): 0.857 | relative viability ([4]; first compound 0.08 µM): 0.432 | relative viability ([4]; first compound 0.8 µM): 0.385 | relative viability ([4]; first compound 2.53 µM): 0.396 | relative viability ([4]; first compound 8 µM): 0.68

COR-L23
relative viability ([1]; first compound 0.08 µM): 0.429 | relative viability ([1]; first compound 0.8 µM): 0.465 | relative viability ([1]; first compound 2.53 µM): 0.469 | relative viability ([1]; first compound 8 µM): 0.431 | relative viability ([2]; first compound 0.04 µM): 0.414 | relative viability ([2]; first compound 0.1265 µM): 0.591 | relative viability ([2]; first compound 0.4 µM): 0.604 | relative viability ([2]; first compound 1.265 µM): 0.262 | relative viability ([2]; first compound 4 µM): 0.389 | relative viability ([3]; first compound 0.04 µM): 0.788 | relative viability ([3]; first compound 0.1265 µM): 0.804 | relative viability ([3]; first compound 0.4 µM): 0.644 | relative viability ([3]; first compound 1.265 µM): 0.437 | relative viability ([3]; first compound 4 µM): 0.161 | relative viability ([4]; first compound 0.08 µM): 0.905 | relative viability ([4]; first compound 0.8 µM): 1.3 | relative viability ([4]; first compound 2.53 µM): 1.1 | relative viability ([4]; first compound 8 µM): 1.03
